In patent US9999605B2, “Preparation for treatment of a non-oral treatment site comprising an active chlorine compound and amino acids” (RLS GLOBAL AB, priority 2012, dated 2018):

Experiments:
Staphylococcus = assay: Example 2: bacterial cultivation, resistance; assay type: cell-based; settings: bacterial cultivation from the leg ulcer
amputation wound = assay: Example 4: treatment of an amputation wound; assay type: in vivo, human; settings: 750 mg×3, prescribed May 24, 2012, before the test treatments
Protocol: If nothing else is mentioned herein below, the treatment preparation used in the examples below was prepared just before application by mixing one volume of a component containing aqueous NaOCl in an amount of 1-2% (by weight) with one volume of a component containing amino acids lys+Glu+Leu (1:1:1 relation and 0.7-0.8% total amino content by weight), TiO2 (0.04% by weight), NaCl (0.3-0.6% by weight), Na-CMC (medium viscosity; 3% by weight), and NaOH (added to adjust the pH to be 9.5-10.5 by weight). Medium viscosity of carboxymethyl cellulose is defined as 400-800 (mPas).
The components were mixed and the resulting mixture, i.e. the treatment preparation, was applied immediately (within seconds at the most one minute) to the treatment site, e.g. an ulcer. In this way there was provided that the mentioned chemical reaction forming halogenated amino acids occurs in contact with the treatment site. The resulting chemical reaction was allowed to proceed so as to separate dead tissue from healthy tissue as well as decomposing and/or destroying bacteria. The mixture in the form a solution was left within the treatment area, e.g. ulcer, for 5 minutes or less, wherein the reaction proceeds such that bubbles and a smell of chlorine appear and then disappear in the preparation. […]

CC1(C)S[C@@H]2[C@H](NC(=O)COc3ccccc3)C(=O)N2[C@H]1C(=O)O [fenoximetylpenicillin]
resistance of cultivated Staphylococcus (Staphylococcus): resistant

Cc1onc(-c2c(F)cccc2Cl)c1C(=O)N[C@@H]1C(=O)N2[C@@H]1SC(C)(C)[C@@H]2C(=O)O [flukloxacillin]
resistance of cultivated Staphylococcus (Staphylococcus): resistant

Cc1onc(-c2c(F)cccc2Cl)c1C(=O)N[C@@H]1C(=O)N2[C@@H]1SC(C)(C)[C@@H]2C(=O)O [Heracillin®]
effect of antibiotic on non-healing amputation wound (amputation wound): did not improve their condition
